# Structures can show the parent of a compound that is named as a salt.
# T1: Organic anion transporter 3 (Mus musculus, UniProt O88909)
# T1 sequence (O88909 whole entry): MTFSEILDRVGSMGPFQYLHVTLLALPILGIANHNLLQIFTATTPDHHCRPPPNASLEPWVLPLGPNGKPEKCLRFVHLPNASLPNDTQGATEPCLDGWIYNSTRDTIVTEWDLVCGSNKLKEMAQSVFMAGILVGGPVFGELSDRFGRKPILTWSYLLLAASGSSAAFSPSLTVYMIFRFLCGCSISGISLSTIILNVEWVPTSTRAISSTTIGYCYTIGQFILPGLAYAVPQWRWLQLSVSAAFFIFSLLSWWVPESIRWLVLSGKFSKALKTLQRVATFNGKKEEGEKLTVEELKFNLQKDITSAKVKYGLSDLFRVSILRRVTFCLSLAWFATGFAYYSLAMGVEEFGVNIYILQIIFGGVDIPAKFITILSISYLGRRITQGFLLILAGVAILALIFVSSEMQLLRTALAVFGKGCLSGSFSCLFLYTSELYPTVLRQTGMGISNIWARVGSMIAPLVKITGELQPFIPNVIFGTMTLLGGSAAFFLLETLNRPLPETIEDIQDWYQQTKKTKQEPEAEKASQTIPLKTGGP
# T2: Oat3 (organic anion transporter 3) (Mus musculus, UniProt O88909)
# T2 sequence (O88909 whole entry): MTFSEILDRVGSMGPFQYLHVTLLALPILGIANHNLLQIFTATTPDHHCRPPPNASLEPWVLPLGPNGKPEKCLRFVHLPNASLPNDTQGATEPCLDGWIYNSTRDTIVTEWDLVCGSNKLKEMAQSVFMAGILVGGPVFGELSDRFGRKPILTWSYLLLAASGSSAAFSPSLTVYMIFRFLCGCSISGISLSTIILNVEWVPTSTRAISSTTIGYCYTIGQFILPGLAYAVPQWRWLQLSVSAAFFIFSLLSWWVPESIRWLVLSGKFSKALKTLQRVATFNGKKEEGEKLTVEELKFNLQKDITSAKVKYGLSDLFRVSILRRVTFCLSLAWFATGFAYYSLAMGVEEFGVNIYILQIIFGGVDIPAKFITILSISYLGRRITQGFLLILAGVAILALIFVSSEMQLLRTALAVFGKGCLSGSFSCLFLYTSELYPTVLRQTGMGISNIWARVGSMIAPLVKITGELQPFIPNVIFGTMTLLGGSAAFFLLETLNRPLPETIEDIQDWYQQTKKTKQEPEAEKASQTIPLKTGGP
# Columns and labels:
# [1] = biological target: T1, Organic anion transporter 3; experiment: (§1) TP_TRANSPORTER: uptake in Oat3-expressing oocyte cells; type: functional, cell-based
# [2] = biological target: T1, Organic anion transporter 3; experiment: TP_TRANSPORTER: inhibition of benzylpenicillin uptake by Indomethacin at a concentration of 1000uM in Oat3-expressing oocyte cells; type: functional, cell-based; design: scale not given: the % may be the effect or the level left
# [3] = biological target: T1, Organic anion transporter 3; experiment: TP_TRANSPORTER: inhibition of benzylpenicillin uptake by Homovanillic acid at a concentration of 1000uM in Oat3-expressing oocyte cells; type: functional, cell-based; design: scale not given: the % may be the effect or the level left
# [4] = biological target: T1, Organic anion transporter 3; experiment: TP_TRANSPORTER: inhibition of benzylpenicillin uptake by Bromosulfophthalein at a concentration of 1000uM in Oat3-expressing oocyte cells; type: functional, cell-based; design: scale not given: the % may be the effect or the level left
# [5] = biological target: T1, Organic anion transporter 3; experiment: TP_TRANSPORTER: inhibition of benzylpenicillin uptake by P-aminohippuric acid at a concentration of 1000uM in Oat3-expressing oocyte cells; type: functional, cell-based; design: scale not given: the % may be the effect or the level left
# [6] = biological target: T1, Organic anion transporter 3; experiment: TP_TRANSPORTER: inhibition of benzylpenicillin uptake by Estradiol sulfate at a concentration of 5uM in Oat3-expressing oocyte cells; type: functional, cell-based; design: scale not given: the % may be the effect or the level left
# [7] = biological target: T2, Oat3 (organic anion transporter 3); experiment: TP_TRANSPORTER: inhibition of benzylpenicillin uptake by Estradiol glucuronide sulfate at a concentration of 5uM in Oat3-expressing oocyte cells; type: functional, cell-based; design: scale not given: the % may be the effect or the level left; conditions: Oat3-expressing oocytes, probe benzylpenicillin; read-out: Activity
# [8] = biological target: T2, Oat3 (organic anion transporter 3); experiment: in vitro; conditions: Oat3-expressing oocytes, probe benzylpenicillin
# [9] = biological target: T1, Organic anion transporter 3; experiment: TP_TRANSPORTER: inhibition of benzylpenicillin uptake by Probenecid at a concentration of 1000uM in Oat3-expressing oocyte cells; type: functional, cell-based; design: scale not given: the % may be the effect or the level left
# [10] = biological target: T2, Oat3 (organic anion transporter 3); experiment: TP_TRANSPORTER: inhibition of benzylpenicillin uptake by Urate at a concentration of 1000uM in Oat3-expressing oocyte cells; type: functional, cell-based; design: scale not given: the % may be the effect or the level left; conditions: Oat3-expressing oocytes, probe benzylpenicillin; read-out: Activity
# [11] = biological target: T2, Oat3 (organic anion transporter 3); experiment: TP_TRANSPORTER: inhibition of benzylpenicillin uptake by Indoxyl sulfate at a concentration of 1000uM in Oat3-expressing oocyte cells; type: functional, cell-based; design: scale not given: the % may be the effect or the level left; conditions: Oat3-expressing oocytes, probe benzylpenicillin; read-out: Activity
# [12] = biological target: T1, Organic anion transporter 3; experiment: TP_TRANSPORTER: inhibition of benzylpenicillin uptake by 3'-Azido-3'-deoxythymidine at a concentration of 1000uM in Oat3-expressing oocyte cells; type: functional, cell-based; design: scale not given: the % may be the effect or the level left
# [13] = biological target: T1, Organic anion transporter 3; experiment: TP_TRANSPORTER: inhibition of benzylpenicillin uptake by Methotrexate at a concentration of 1000uM in Oat3-expressing oocyte cells; type: functional, cell-based; design: scale not given: the % may be the effect or the level left
# [14] = biological target: T1, Organic anion transporter 3; experiment: TP_TRANSPORTER: inhibition of benzylpenicillin uptake by Estrone-3-sulfate at a concentration of 1000uM in Oat3-expressing oocyte cells; type: functional, cell-based; design: scale not given: the % may be the effect or the level left
# [15] = biological target: T1, Organic anion transporter 3; experiment: TP_TRANSPORTER: inhibition of benzylpenicillin uptake by 5-Hydroxyindole-3-acetic acid at a concentration of 1000uM in Oat3-expressing oocyte cells; type: functional, cell-based; design: scale not given: the % may be the effect or the level left
# [16] = biological target: T1, Organic anion transporter 3; experiment: TP_TRANSPORTER: inhibition of benzylpenicillin uptake by Prostaglandin E2 at a concentration of 1000uM in Oat3-expressing oocyte cells; type: functional, cell-based; design: scale not given: the % may be the effect or the level left
# [17] = biological target: T2, Oat3 (organic anion transporter 3); experiment: TP_TRANSPORTER: inhibition of benzylpenicillin uptake by Pravastatin at a concentration of 1000uM in Oat3-expressing oocyte cells; type: functional, cell-based; design: scale not given: the % may be the effect or the level left; conditions: Oat3-expressing oocytes, probe benzylpenicillin; read-out: Activity
# [18] = biological target: T2, Oat3 (organic anion transporter 3); experiment: TP_TRANSPORTER: inhibition of benzylpenicillin uptake by Triiodothyronine at a concentration of 1000uM in Oat3-expressing oocyte cells; type: functional, cell-based; design: scale not given: the % may be the effect or the level left; conditions: Oat3-expressing oocytes, probe benzylpenicillin; read-out: Activity
# [19] = biological target: T1, Organic anion transporter 3; experiment: TP_TRANSPORTER: inhibition of benzylpenicillin uptake in Oat3-expressing oocyte cells; type: functional, cell-based; design: scale not given: the % may be the effect or the level left
# [20] = substrate: C[C@]12CC[C@@H]3c4ccc(O)cc4CC[C@H]3[C@@H]1CC[C@@H]2O[C@@H]1O[C@H](C(=O)O)[C@@H](O)[C@H](O)[C@H]1O; experiment: as §1; type: functional, cell-based
# [21] = substrate: CC1(C)S[C@@H]2[C@H](NC(=O)Cc3ccccc3)C(=O)N2[C@H]1C(=O)O; experiment: as §1; type: functional, cell-based
molecule,measurement,setting,value
COc1ccc2c(c1)c(CC(=O)O)c(C)n2C(=O)c1ccc(Cl)cc1 [INDOMETHACIN],Activity,[1],substrate []
same,Activity,[2],1.32%
COc1cc(CC(=O)O)ccc1O [HOMOVANILLIC ACID],Activity,[3],40.9%
same,Activity,[1],substrate []
O=C1OC(c2ccc(O)c(S(=O)(=O)[O-])c2)(c2ccc(O)c(S(=O)(=O)[O-])c2)c2c(Br)c(Br)c(Br)c(Br)c21.[Na+].[Na+] [SULFOBROMOPHTHALEIN SODIUM],Activity,[4],2.54%
Nc1ccc(C(=O)NCC(=O)O)cc1 [AMINOHIPPURIC ACID],Activity,[5],14.2%
same,Activity,[1],substrate []
C[C@]12CC[C@@H]3c4ccc(O)cc4CC[C@H]3[C@@H]1CC[C@H]2O.O=S(=O)(O)O,Activity,[6],65.5%
C[C@]12CC[C@@H]3c4ccc(OS(=O)(=O)O)cc4CC[C@H]3[C@@H]1CC[C@@H]2O[C@@H]1O[C@H](C(=O)O)[C@@H](O)[C@H](O)[C@H]1O [ESTRADIOL GLUCURONIDE SULFATE],activity at 5 µM,[7],62.4%
CN/C(=N/CCSCc1nc[nH]c1C)NC#N [CIMETIDINE],activity at 1000 µM,[8],6.88%
same,Activity,[1],substrate []
CCCN(CCC)S(=O)(=O)c1ccc(C(=O)O)cc1 [PROBENECID],Activity,[9],0.625%
O=c1[nH]c(=O)c2[nH]c(=O)[nH]c2[nH]1 [URIC ACID],activity at 1000 µM,[10],19.9%
O=S(=O)(O)Oc1c[nH]c2ccccc12 [INDOXYL SULFATE],activity at 1000 µM,[11],21.9%
same,Activity,[1],substrate []
O=C(O)c1ccccc1O [SALICYLIC ACID],Activity,[1],substrate []
Cc1cn([C@H]2C[C@H](N=[N+]=[N-])[C@@H](CO)O2)c(=O)[nH]c1=O [ZIDOVUDINE],Activity,[12],5.13%
CN(Cc1cnc2nc(N)nc(N)c2n1)c1ccc(C(=O)N[C@@H](CCC(=O)O)C(=O)O)cc1 [METHOTREXATE],Activity,[13],48.4%
same,Activity,[1],substrate []
C[C@]12CC[C@@H]3c4ccc(OS(=O)(=O)O)cc4CC[C@H]3[C@@H]1CCC2=O [ESTRONE SULFURIC ACID],Activity,[14],11.4%
same,Activity,[1],substrate []
O=C(O)Cc1c[nH]c2ccc(O)cc12,Activity,[15],21.7%
O=C(O)CCCC(=O)O [GLUTARATE],Activity,[1],substrate []
CCCCC[C@H](O)/C=C/[C@H]1[C@H](O)CC(=O)[C@@H]1C/C=C\CCCC(=O)O [DINOPROSTONE],Activity,[16],0.101%
CC[C@H](C)C(=O)O[C@H]1C[C@H](O)C=C2C=C[C@H](C)[C@H](CC[C@@H](O)C[C@@H](O)CC(=O)O)[C@H]21 [PRAVASTATIN],activity at 1000 µM,[17],2.85%
N[C@@H](Cc1cc(I)c(Oc2ccc(O)c(I)c2)c(I)c1)C(=O)O [LIOTHYRONINE],activity at 1000 µM,[18],39.8%
O=C(O)[C@H]1O[C@@H](Oc2c[nH]c3ccccc23)[C@H](O)[C@@H](O)[C@@H]1O [INDOXYL GLUCURONIDE],Activity,[19],72.3%
Organic anion transporter 3 (Mus musculus) (protein) MTFSEILDRVGSMGPFQYLHVTLLALPILGIANHNLLQIFTATTPDHHCRPPPNASLEPWVLPLGPNGKPEKCLRFVHLPNASLPNDTQGATEPCLDGWIYNSTRDTIVTEWDLVCGSNKLKEMAQSVFMAGILVGGPVFGELSDRFGRKPILTWSYLLLAASGSSAAFSPSLTVYMIFRFLCGCSISGISLSTIILNVEWVPTSTRAISSTTIGYCYTIGQFILPGLAYAVPQWRWLQLSVSAAFFIFSLLSWWVPESIRWLVLSGKFSKALKTLQRVATFNGKKEEGEKLTVEELKFNLQKDITSAKVKYGLSDLFRVSILRRVTFCLSLAWFATGFAYYSLAMGVEEFGVNIYILQIIFGGVDIPAKFITILSISYLGRRITQGFLLILAGVAILALIFVSSEMQLLRTALAVFGKGCLSGSFSCLFLYTSELYPTVLRQTGMGISNIWARVGSMIAPLVKITGELQPFIPNVIFGTMTLLGGSAAFFLLETLNRPLPETIEDIQDWYQQTKKTKQEPEAEKASQTIPLKTGGP,Km,[20],5.5 µM
same,Km,[21],40 µM

# From ChEMBL document CHEMBL2074259, “Mouse reduced in osteosclerosis transporter functions as an organic anion transporter 3 and is localized at abluminal membrane of blood-brain barrier” (J Pharmacol Exp Ther, 2004)
